We go through 5 compounds from PubChem BioAssay AID1259407 (Chemical Carcinogenesis Research Information System (CCRIS), 2018).

Structures are written as SMILES. The source made the active and inactive calls. No rule for the calls is given here.

The test system of this series is CCRIS mutagenicity, Ames/micronucleus/aberration tests. The series is described as follows: CCRIS mutagenicity studies.
[1] abbreviates: Test System: AMES SALMONELLA TYPHIMURIUM, Strain/Indicator: TA98, Metabolic Activation: NONE, Method: STANDARD PLATE.
The mark [2] stands for this setting: Test System: AMES SALMONELLA TYPHIMURIUM, Strain/Indicator: TA98, Metabolic Activation: RAT, LIVER, S-9, AROCLOR 1254, Method: STANDARD PLATE.
[3] abbreviates: Test System: AMES SALMONELLA TYPHIMURIUM, Strain/Indicator: TA100, Metabolic Activation: NONE, Method: STANDARD PLATE.
Setting [4] is: Test System: AMES SALMONELLA TYPHIMURIUM, Strain/Indicator: TA100, Metabolic Activation: RAT, LIVER, S-9, AROCLOR 1254, Method: STANDARD PLATE.
Setting [5] is: Test System: AMES SALMONELLA TYPHIMURIUM, Strain/Indicator: TA98, Metabolic Activation: NONE, Method: PREINCUBATION
[6] abbreviates: Test System: AMES SALMONELLA TYPHIMURIUM, Strain/Indicator: TA100, Metabolic Activation: NONE, Method: PREINCUBATION
[7] abbreviates: Test System: AMES SALMONELLA TYPHIMURIUM, Strain/Indicator: TA1535, Metabolic Activation: NONE, Method: PREINCUBATION
Where [8] appears, read: Test System: AMES SALMONELLA TYPHIMURIUM, Strain/Indicator: TA1535, Metabolic Activation: NONE, Method: STANDARD PLATE.
Where [9] appears, read: Test System: AMES SALMONELLA TYPHIMURIUM, Strain/Indicator: TA1537, Metabolic Activation: NONE, Method: PREINCUBATION

`O=C1C(c2[nH]c3ccccc3c2O)=Nc2ccccc21`: the mutagenic call was “inactive; negative” under setting [1], “active; positive” under setting [2], “inactive; negative” under setting [3] and “inactive; negative” under setting [4].
On to `COC1=CC=CC=CC1`, for which the mutagenic call under setting [5] is “inactive; negative”; the mutagenic call under setting [1] is “inactive; negative”; the mutagenic call (Test System: AMES SALMONELLA TYPHIMURIUM, Strain/Indicator: TA98, Metabolic Activation: RAT, LIVER, S-9, Method: PREINCUBATION) was “inactive; negative”; the mutagenic call (Test System: AMES SALMONELLA TYPHIMURIUM, Strain/Indicator: TA98, Metabolic Activation: RAT, LIVER, S-9, Method: STANDARD PLATE) was “inactive; negative”; the mutagenic call under setting [6] is “inactive; negative”; the mutagenic call under setting [3] is “inactive; negative”. Besides, the mutagenic call (Test System: AMES SALMONELLA TYPHIMURIUM, Strain/Indicator: TA100, Metabolic Activation: RAT, LIVER, S-9, Method: PREINCUBATION) was “inactive; negative”; the mutagenic call (Test System: AMES SALMONELLA TYPHIMURIUM, Strain/Indicator: TA100, Metabolic Activation: RAT, LIVER, S-9, Method: STANDARD PLATE) is “inactive; negative”; the mutagenic call under setting [7] is “inactive; negative”; the mutagenic call under setting [8] is “inactive; negative”; the mutagenic call (Test System: AMES SALMONELLA TYPHIMURIUM, Strain/Indicator: TA1535, Metabolic Activation: RAT, LIVER, S-9, Method: PREINCUBATION) was “inactive; negative”; the mutagenic call (Test System: AMES SALMONELLA TYPHIMURIUM, Strain/Indicator: TA1535, Metabolic Activation: RAT, LIVER, S-9, Method: STANDARD PLATE) is “inactive; negative”. The mutagenic call by setting is: under setting [9], “inactive; negative”; (Test System: AMES SALMONELLA TYPHIMURIUM, Strain/Indicator: TA1537, Metabolic Activation: RAT, LIVER, S-9, Method: PREINCUBATION) “inactive; negative”; (Test System: AMES SALMONELLA TYPHIMURIUM, Strain/Indicator: TA1538, Metabolic Activation: NONE, Method: PREINCUBATION) “inactive; negative”; (Test System: AMES SALMONELLA TYPHIMURIUM, Strain/Indicator: TA1538, Metabolic Activation: NONE, Method: STANDARD PLATE) “active; positive”; (Test System: AMES SALMONELLA TYPHIMURIUM, Strain/Indicator: TA1538, Metabolic Activation: RAT, LIVER, S-9, Method: PREINCUBATION) “inactive; negative”; (Test System: AMES SALMONELLA TYPHIMURIUM, Strain/Indicator: TA1538, Metabolic Activation: RAT, LIVER, S-9, Method: STANDARD PLATE) “active; positive”. Besides, the mutagenic call is “active; positive” (Test System: CHINESE HAMSTER V-79, Strain/Indicator: V-79/8-AZAGUANINE (HGPRT), Metabolic Activation: NONE, Method: STANDARD PLATE); “active; positive” (Test System: CHINESE HAMSTER V-79, Strain/Indicator: V-79/8-AZAGUANINE (HGPRT), Metabolic Activation: RAT, LIVER, S-9, Method: STANDARD PLATE); “inactive; negative” (Test System: MOUSE LYMPHOMA, Strain/Indicator: L5178Y (TK+/TK-), Metabolic Activation: NONE); “active; positive” (Test System: MOUSE LYMPHOMA, Strain/Indicator: L5178Y (TK+/TK-), Metabolic Activation: RAT, LIVER, S-9); “active; positive” (Test System: MOUSE LYMPHOMA, Strain/Indicator: L5178Y (TK+/TK-), Metabolic Activation: RAT, LIVER, S-9, AROCLOR 1254).
Turning to `Cc1cc(C)n(-c2nnc(NN)c3c2[nH]c2ccccc23)n1`, the mutagenic call was “inactive; negative” under setting [5]; “inactive; negative” (Test System: AMES SALMONELLA TYPHIMURIUM, Strain/Indicator: TA98, Metabolic Activation: RAT, LIVER, S-9, AROCLOR 1254 (4 OR 10%), Method: PREINCUBATION); “inactive; negative” under setting [6]; “inactive; negative” (Test System: AMES SALMONELLA TYPHIMURIUM, Strain/Indicator: TA100, Metabolic Activation: RAT, LIVER, S-9, AROCLOR 1254 (4 OR 10%), Method: PREINCUBATION); “inactive; negative” under setting [7]; “inactive; negative” (Test System: AMES SALMONELLA TYPHIMURIUM, Strain/Indicator: TA1535, Metabolic Activation: RAT, LIVER, S-9, AROCLOR 1254 (10%), Method: PREINCUBATION). Further, the mutagenic call runs as follows: under setting [9], “inactive; negative”; (Test System: AMES SALMONELLA TYPHIMURIUM, Strain/Indicator: TA1537, Metabolic Activation: RAT, LIVER, S-9, AROCLOR 1254 (4 OR 10%), Method: PREINCUBATION) “inactive; negative”.
As for `CCc1cccc2c3c([nH]c12)C(CC)(CC(=O)O)OCC3` (configuration not stated), the mutagenic call runs as follows: under setting [1], “inactive; negative”; under setting [2], “inactive; negative”; under setting [3], “inactive; negative”; under setting [4], “inactive; negative”; under setting [8], “inactive; negative”; (Test System: AMES SALMONELLA TYPHIMURIUM, Strain/Indicator: TA1535, Metabolic Activation: RAT, LIVER, S-9, AROCLOR 1254, Method: STANDARD PLATE) “inactive; negative”. Besides, the mutagenic call was “inactive; negative” (Test System: AMES SALMONELLA TYPHIMURIUM, Strain/Indicator: TA1537, Metabolic Activation: NONE, Method: STANDARD PLATE); “inactive; negative” (Test System: AMES SALMONELLA TYPHIMURIUM, Strain/Indicator: TA1537, Metabolic Activation: RAT, LIVER, S-9, AROCLOR 1254, Method: STANDARD PLATE); “inactive; negative” (Test System: E. COLI, Strain/Indicator: WP2 UVRA, Metabolic Activation: NONE, Method: STANDARD PLATE); “inactive; negative” (Test System: E. COLI, Strain/Indicator: WP2 UVRA, Metabolic Activation: RAT, LIVER, S-9, AROCLOR 1254, Method: STANDARD PLATE).
On to `COC(=O)c1cc2ccc3cccnc3c2[nH]1`, for which the mutagenic call under setting [1] was “inactive; negative” and the mutagenic call (Test System: E. COLI, Strain/Indicator: WP2 TM9, Metabolic Activation: NONE, Method: STANDARD PLATE) is “inactive; negative”.
